Test results as given in ChEMBL document CHEMBL1201862, “PubChem BioAssay data set” (2004).
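These data come from cells grown in 96-well plates and exposed to compound for 48 hours at five concentrations. GI50 is the concentration that inhibits growth by half.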 Calls of active or inactive are those of the source. No stated cut-off is given here; in the data, active = GI50 up to about 1.1 µM and inactive = higher.

How the values were obtained:
Assay in all cases: growth of human tumour cells (NCI), 48 h
DMS-273 = system: DMS-273
A549 = system: A549
UO-31 = system: UO-31
OVCAR-3 = system: OVCAR-3
OVCAR-5 = system: OVCAR-5
NCI-H522 = system: NCI-H522
SR = system: SR
HOP-62 = system: HOP-62
HT-29 = system: HT-29
SF-295 = system: SF-295
KM12 = system: KM12
RXF 393 = system: RXF 393
EKVX = system: EKVX
SK-MEL-2 = system: SK-MEL-2
NCI-H226 = system: NCI-H226
M14 = system: M14
UACC-62 = system: UACC-62
SK-MEL-28 = system: SK-MEL-28
SW-620 = system: SW-620
A498 = system: A498
SNB-19 = system: SNB-19
OVCAR-8 = system: OVCAR-8
UACC-257 = system: UACC-257
SF-268 = system: SF-268
NCI-H460 = system: NCI-H460
U-251 = system: U-251
SNB-78 = system: SNB-78
HCC 2998 = system: HCC 2998
TK-10 = system: TK-10
CAKI-1 = system: CAKI-1
SN12C = system: SN12C
MOLT-4 = system: MOLT-4
HCT-15 = system: HCT-15
RPMI-8226 = system: RPMI-8226
LOX IMVI = system: LOX IMVI
LXFL 529 = system: LXFL 529
OVCAR-4 = system: OVCAR-4
ACHN = system: ACHN
SF-539 = system: SF-539
COLO 205 = system: COLO 205
NCI-H23 = system: NCI-H23
K562 = system: K562
CCRF-CEM = system: CCRF-CEM
HCT-116 = system: HCT-116
DMS-114 = system: DMS-114
786-0 = system: 786-0
KM-20L2 = system: KM-20L2
HOP-92 = system: HOP-92
M19-MEL = system: M19-MEL
Malme-3M = system: Malme-3M
HL-60 = system: HL-60
SK-OV-3 = system: SK-OV-3
SNB-75 = system: SNB-75
HOP-18 = system: HOP-18
SK-MEL-5 = system: SK-MEL-5
DLD-1 = system: DLD-1
IGROV-1 = system: IGROV-1
DU-145 = system: DU-145
PC-3 = system: PC-3
Hs-578T = system: Hs-578T
MCF7 = system: MCF7
NCI/ADR-RES = system: NCI/ADR-RES
BT-549 = system: BT-549
MDA-MB-435 = system: MDA-MB-435
MDA-N = system: MDA-N
MDA-MB-231 = system: MDA-MB-231
T47D = system: T47D

Measured: GI50

O=C(O)CCCSC(=O)Nc1ccc(/N=N/c2ccccc2)cc1
> 100 µM: HCT-15
inactive: DMS-273 > 100 µM | A549 > 100 µM | UO-31 > 100 µM | OVCAR-3 > 100 µM | OVCAR-5 > 100 µM | NCI-H522 > 100 µM | SR > 100 µM | HOP-62 > 100 µM | HT-29 > 100 µM | SF-295 > 100 µM | KM12 > 100 µM | RXF 393 > 100 µM | EKVX > 100 µM | SK-MEL-2 > 100 µM | NCI-H226 > 100 µM | M14 > 100 µM | UACC-62 > 100 µM | SK-MEL-28 > 100 µM | SW-620 > 100 µM | A498 > 100 µM | SNB-19 > 100 µM | OVCAR-8 > 100 µM | UACC-257 > 100 µM | SF-268 56.1 µM | NCI-H460 > 100 µM | U-251 > 100 µM | SNB-78 > 100 µM | HCC 2998 > 100 µM | TK-10 > 100 µM | CAKI-1 > 100 µM | SN12C > 100 µM | MOLT-4 9.68 µM | RPMI-8226 > 100 µM | LOX IMVI > 100 µM | LXFL 529 > 100 µM | OVCAR-4 > 100 µM | ACHN > 100 µM | SF-539 > 100 µM | COLO 205 > 100 µM | NCI-H23 > 100 µM | K562 65.9 µM | CCRF-CEM 31.7 µM | HCT-116 > 100 µM | DMS-114 > 100 µM | 786-0 > 100 µM | KM-20L2 > 100 µM

CCOC(=O)NC(=O)c1cn(CCSCCOC(=O)NCCCCCCNC(=O)OCCSCCn2cc(C(=O)NC(=O)OCC)c(=O)[nH]c2=O)c(=O)[nH]c1=O
inactive: HOP-92 > 100 µM | DMS-273 > 100 µM | A549 > 100 µM | UO-31 > 100 µM | OVCAR-3 > 100 µM | HOP-62 > 100 µM | HT-29 > 100 µM | M19-MEL > 100 µM | SF-295 > 100 µM | Malme-3M > 100 µM | RXF 393 > 100 µM | EKVX > 100 µM | M14 > 100 µM | UACC-62 > 100 µM | SK-MEL-28 > 100 µM | HL-60 > 100 µM | SW-620 > 100 µM | SK-OV-3 > 100 µM | SNB-19 > 100 µM | OVCAR-8 > 100 µM | UACC-257 > 100 µM | SNB-75 > 100 µM | NCI-H460 > 100 µM | HOP-18 > 100 µM | U-251 > 100 µM | SNB-78 > 100 µM | TK-10 > 100 µM | CAKI-1 > 100 µM | SN12C > 100 µM | SK-MEL-5 > 100 µM | DLD-1 > 100 µM | LOX IMVI > 100 µM | OVCAR-4 > 100 µM | ACHN > 100 µM | SF-539 > 100 µM | COLO 205 > 100 µM | NCI-H23 > 100 µM | K562 > 100 µM | CCRF-CEM > 100 µM | HCT-116 > 100 µM | DMS-114 > 100 µM | IGROV-1 > 100 µM | KM-20L2 > 100 µM
> 100 µM: HCT-15

Cc1cc(/C=C/c2cc[n+](C)c3ccccc23)c(O)c2ncccc12
4.65 µM: HCT-15
active: DMS-273 0.558 µM | OVCAR-3 0.288 µM | SR 0.379 µM | SF-295 0.991 µM | HL-60 0.625 µM | SW-620 0.619 µM | OVCAR-8 0.411 µM | SF-268 0.973 µM | NCI-H460 0.597 µM | HCC 2998 1.06 µM | SN12C 1.09 µM | MOLT-4 0.646 µM | SK-MEL-5 1.02 µM | RPMI-8226 0.71 µM | LXFL 529 0.156 µM | SF-539 0.426 µM | CCRF-CEM 0.181 µM | HCT-116 0.966 µM | DMS-114 0.214 µM | 786-0 0.916 µM
inactive: HOP-92 2.99 µM | A549 2.07 µM | UO-31 6.67 µM | OVCAR-5 3.27 µM | NCI-H522 1.77 µM | HOP-62 1.87 µM | HT-29 3.76 µM | M19-MEL 1.42 µM | Malme-3M 2.8 µM | KM12 2.19 µM | RXF 393 2.38 µM | EKVX 3.28 µM | SK-MEL-2 2.67 µM | NCI-H226 1.87 µM | M14 1.44 µM | UACC-62 1.99 µM | SK-MEL-28 2.16 µM | SK-OV-3 2.4 µM | A498 4.19 µM | SNB-19 4.55 µM | UACC-257 2.97 µM | SNB-75 5.16 µM | HOP-18 1.36 µM | U-251 1.23 µM | SNB-78 4.63 µM | TK-10 4.28 µM | CAKI-1 10.1 µM | DLD-1 3.32 µM | LOX IMVI 1.35 µM | OVCAR-4 7.94 µM | ACHN 4.22 µM | COLO 205 5.68 µM | NCI-H23 1.7 µM | K562 2.46 µM | IGROV-1 1.93 µM | KM-20L2 5.68 µM

COC1OC(C)C(OCc2ccccc2)C(OS(=O)(=O)c2ccc(C)cc2)C1OS(=O)(=O)c1ccc(C)cc1 (centres undefined)
inactive: DMS-273 > 100 µM | A549 > 100 µM | UO-31 > 100 µM | OVCAR-3 > 100 µM | OVCAR-5 > 100 µM | NCI-H522 > 100 µM | SR > 100 µM | HOP-62 > 100 µM | HT-29 > 100 µM | M19-MEL > 100 µM | SF-295 > 100 µM | Malme-3M > 100 µM | KM12 > 100 µM | RXF 393 > 100 µM | EKVX > 100 µM | SK-MEL-2 > 100 µM | NCI-H226 > 100 µM | M14 > 100 µM | SK-MEL-28 > 100 µM | HL-60 > 100 µM | SW-620 > 100 µM | SK-OV-3 > 100 µM | SNB-19 > 100 µM | OVCAR-8 > 100 µM | UACC-257 > 100 µM | SF-268 > 100 µM | SNB-75 > 100 µM | NCI-H460 > 100 µM | HOP-18 > 100 µM | U-251 > 100 µM | SNB-78 > 100 µM | HCC 2998 > 100 µM | CAKI-1 53.5 µM | SN12C > 100 µM | MOLT-4 > 100 µM | SK-MEL-5 > 100 µM | RPMI-8226 > 100 µM | DLD-1 > 100 µM | LXFL 529 > 100 µM | OVCAR-4 > 100 µM | ACHN > 100 µM | SF-539 > 100 µM | COLO 205 > 100 µM | NCI-H23 > 100 µM | K562 > 100 µM | CCRF-CEM > 100 µM | HCT-116 > 100 µM | DMS-114 > 100 µM | IGROV-1 > 100 µM | 786-0 > 100 µM | KM-20L2 > 100 µM
> 100 µM: HCT-15

OC1COC(n2c3ccc(Br)cc3c3ccc4c5ccccc5[nH]c4c32)C(O)C1O (centres undefined)
inactive: HOP-92 2.54 µM | A549 2.61 µM | UO-31 2.82 µM | OVCAR-3 3.37 µM | OVCAR-5 2.92 µM | NCI-H522 2.82 µM | DU-145 3.66 µM | PC-3 2.21 µM | SR 3.67 µM | Hs-578T 3.18 µM | MCF7 2.99 µM | HOP-62 3.64 µM | HT-29 3.15 µM | Malme-3M 3.88 µM | KM12 1.56 µM | NCI/ADR-RES 4.07 µM | RXF 393 1.76 µM | EKVX 4.59 µM | NCI-H226 6.76 µM | M14 3.12 µM | SK-MEL-28 1.13 µM | HL-60 3.48 µM | A498 4.3 µM | SNB-19 10.7 µM | OVCAR-8 3.65 µM | UACC-257 5.21 µM | SF-268 3.84 µM | SNB-75 3.24 µM | NCI-H460 2.58 µM | MDA-MB-435 3.89 µM | U-251 5.01 µM | HCC 2998 2.67 µM | TK-10 4.28 µM | CAKI-1 3.13 µM | SN12C 4.84 µM | MOLT-4 3.05 µM | MDA-N 4.4 µM | SK-MEL-5 2.26 µM | MDA-MB-231 2.14 µM | RPMI-8226 3.52 µM | LOX IMVI 2.31 µM | OVCAR-4 13.5 µM | ACHN 2.84 µM | SF-539 5.24 µM | COLO 205 1.89 µM | T47D 5.21 µM | NCI-H23 3.02 µM | K562 2.29 µM | CCRF-CEM 4.72 µM | HCT-116 3.55 µM | IGROV-1 1.21 µM | 786-0 3.96 µM
active: SF-295 0.538 µM | SK-MEL-2 0.658 µM | BT-549 1.1 µM | UACC-62 0.643 µM | SW-620 0.644 µM | SK-OV-3 0.832 µM
3.37 µM: HCT-15
